A word on the inhibition: it is the drop in the measured response relative to a control, in per cent.

The record followed here is US12570687B2, “Triterpenoid compounds, pharmaceutical compositions thereof, and their use for treating a nuclear receptor subfamily 4 group a member 1-mediated disease” (NUCMITO PHARMACEUTICALS COMPANY LIMITED, priority 2019, dated 2026).

Where only a bound is given, the exact number is not on record here.

Type in all cases: cell-based
Test [1] has as its system A375 (malignant melanoma). Nature of the test: MTT antiproliferative assay, A375. The following applies: Homo sapiens, A-375, A375, 10 μM, 48 or 72 h, read-out: inhibition of cell growth, A375. Put shortly:
(§1)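 Cells seeded at 2,000-5,000/well were treated with compound at 0.137 to 100 μM or a single 10 μM for 48 or 72 h at 37° C. MTT was added for a further 4 h, formazan dissolved in DMSO and absorbance read at 490 nm; viability was expressed relative to DMSO vehicle.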
For orientation: Tetrazolium dyes change colour on reduction, which living cells bring about.

The test system of test [2] is MDA-MB-231 (breast cancer). Nature of the test: MTT antiproliferative assay, MDA-MB-231. The following applies: Homo sapiens, MDA-MB-231, 10 μM, 48 or 72 h, read-out: inhibition of cell growth, MDA-MB-231. Put shortly: as §1
Test [3] has as its system A431 (epidermoid carcinoma). Nature of the test: MTT antiproliferative assay, A431. The following applies: Homo sapiens, A-431, A431, 10 μM, 48 or 72 h, read-out: inhibition of cell growth, A431. Put shortly:
as §1

The test system of test [4] is A549 (lung adenocarcinoma). Nature of the test: MTT antiproliferative assay, A549. Conditions: Homo sapiens, A549, 10 μM, 48 or 72 h, read-out: inhibition of cell growth, A549. An outline of the steps: as §1
For the next test, the system named is HepG2 (liver cancer). Nature of the test: MTT antiproliferative assay, HepG2. The following applies: Homo sapiens, HepG2, 10 μM, 48 or 72 h, read-out: inhibition of cell growth, HepG2. An outline of the steps:
as §1

The test system of the next test is SW620 (colon cancer). Nature of the test: MTT antiproliferative assay, SW620. Conditions: Homo sapiens, SW-620, SW620, 10 μM, 48 or 72 h, read-out: inhibition of cell growth, SW620. An outline of the steps: as §1
For another test, the system named is HeLa (ovarian cancer). Nature of the test: MTT antiproliferative assay, HeLa. Conditions: Homo sapiens, 48 or 72 h, read-out: inhibition of cell growth, HELA. Put shortly: as §1

For the molecule `CO[C@]1(C)C(=O)C(=O)C=C2C1=CC=C1[C@@]2(C)CC[C@@]2(C)[C@@H]3C[C@](C)(C(=O)NO)CC[C@]3(C)CC[C@]12C` [Compound A45, (2R,4aS,6aS,9S,12bR,14aS,14bR)—N-Hydroxy-9-methoxy-2,4a,6a,9,12b,14a-hexamethyl-10,11-dioxo-1,2,3,4,4a,5,6,6a,9,10,11,12b,13,14,14a,14b-hexadecahydropicene-2-carboxamide], the inhibition at 10 µM in test [1] is 50 to 80%; in test [2], at least 80%; in test [3], at least 80%; in test [4] it was at least 80%; in the test with HepG2 (liver cancer) it was at least 80%; with SW620 (colon cancer), 50 to 80%. Moreover, the inhibition at 10 µM in the test on HeLa (ovarian cancer) was at least 80%.

Turning to `CO[C@@]1(C)C2=CC=C3[C@@](C)(CC[C@@]4(C)[C@@H]5C[C@](C)(C(=O)O)CC[C@]5(C)CC[C@]34C)C2=CC2(O)OCCN=C21` (stereo partly drawn) [Compound A46, (2R,4aS,6aS,9S,14bR,16aS,16bR)-13a-hydroxy-9-methoxy-2,4a,6a,9,14b,16a-hexamethyl-2,3,4,4a,5,6,6a,9,11,12,13a,14b,15,16,16a,16b-hexadecahydro-1H-piceno[2,3-b][1,4]oxazine-2-carboxylic acid], the inhibition at 10 µM in test [1] was 30 to 50%; in test [2] it was 50 to 80%; in test [3], at least 80%; in test [4], 50 to 80%; in the test with HepG2 (liver cancer), at least 80%; in the test with SW620 (colon cancer), 50 to 80%. The inhibition at 10 µM in the test on HeLa (ovarian cancer) was at least 80%.

Consider `CO[C@@]1(C)C2=CC=C3[C@@](C)(CC[C@@]4(C)[C@@H]5C[C@](C)(C(=O)NO)CC[C@]5(C)CC[C@]34C)C2=CC2(O)OCCN=C21` (stereo partly drawn) [Compound A47, (2R,4aS,6aS,9S,14bR,16aS,16bR)—N,13a-dihydroxy-9-methoxy-2,4a,6a,9,14b,16a-hexamethyl-2,3,4,4a,5,6,6a,9,11,12,13a,14b,15,16,16a,16b-hexadecahydro-1H-piceno[2,3-b][1,4]oxazine-2-carboxamide], for which the inhibition at 10 µM was 30 to 50% in test [1]; at least 80% in test [2]; at least 80% in test [3]; at least 80% in test [4]; at least 80% with HepG2 (liver cancer); 50 to 80% with SW620 (colon cancer). For the same molecule, the inhibition at 10 µM in the test with HeLa (ovarian cancer) was at least 80%.

Take `CO[C@@]1(C)C2=CC=C3[C@@](C)(CC[C@@]4(C)[C@@H]5C[C@](C)(C(=O)O)CC[C@]5(C)CC[C@]34C)C2=CC(=NO)[C@@H]1O` [Compound A50, (2R,4aS,6aS,9S,10S,12bR,14aS,14bR)-10-hydroxy-11-(hydroxyimino)-9-methoxy-2,4a,6a,9,12b,14a-hexamethyl-1,2,3,4,4a,5,6,6a,9,10,11,12b,13,14,14a,14b-hexadecahydropicene-2-carboxylic acid]: the inhibition at 10 µM (in test [1]; in test [2]; in test [3]; in test [4]; in the test with HepG2 (liver cancer); with SW620 (colon cancer)) was below 30% throughout. In addition, in the test with HeLa (ovarian cancer), the inhibition at 10 µM was below 30%.

In the case of `CO[C@@]1(C)C2=CC=C3[C@@](C)(CC[C@@]4(C)[C@@H]5C[C@](C)(C(=O)O)CC[C@]5(C)CC[C@]34C)C2=CC(=O)C1=NNC(C)=O` [Compound A51, (2R,4aS,6aS,9S,12bR,14aS,14bR)-10-(acetamidoimino)-9-methoxy-2,4a,6a,9,12b,14a-hexamethyl-11-oxo-1,2,3,4,4a,5,6,6a,9,10,11,12b,13,14,14a,14b-hexadecahydropicene-2-carboxylic acid], the inhibition at 10 µM (in test [1]; in test [2]; in test [3]; in test [4]; in the test with HepG2 (liver cancer); in the test with SW620 (colon cancer)) was below 30% throughout. The inhibition at 10 µM with HeLa (ovarian cancer) is below 30%.

With `CO[C@@]1(C)C2=CC=C3[C@@](C)(CC[C@@]4(C)[C@@H]5C[C@](C)(C(=O)O)CC[C@]5(C)CC[C@]34C)C2=CC(=O)C1=NNC(=O)c1ccncc1` [Compound A52, (2R,4aS,6aS,9S,12bR,14aS,14bR)-9-Methoxy-2,4a,6a,9,12b,14a-hexamethyl-11-oxo-10-{[(pyridin-4-yl)formamido]imino}-1,2,3,4,4a,5,6,6a,9,10,11,12b,13,14,14a,14b-hexadecahydropicene-2-carboxylic acid], the inhibition at 10 µM (in test [1]; in test [2]; in test [3]; in test [4]; with HepG2 (liver cancer); with SW620 (colon cancer)) was below 30% in each case. For the same molecule, the inhibition at 10 µM in the test on HeLa (ovarian cancer) is below 30%.

Turning to `CO[C@]1(C)C(=O)C2(C=C3C1=CC=C1[C@@]3(C)CC[C@@]3(C)[C@@H]4C[C@](C)(C(=O)O)CC[C@]4(C)CC[C@]13C)OCCO2` [Compound A54, (4S,6bS,8aS,11R,12aR,12bS,14aR)-4-methoxy-4,6b,8a,11,12b,14a-hexamethyl-3-oxo-4,6b,7,8,8a,9,10,11,12,12a,12b,13,14,14a-tetradecahydro-3H-spiro[picene-2,2′-[1,3]dioxolane]-11-carboxylic acid], the inhibition at 10 µM (in test [1]; in test [2]; in test [3]; in test [4]; in the test with HepG2 (liver cancer); with SW620 (colon cancer)) was below 30% each time. Further, the inhibition at 10 µM in the test on HeLa (ovarian cancer) was below 30%.

Regarding `CO[C@@]1(C)C2=CC=C3[C@@](C)(CC[C@@]4(C)[C@@H]5C[C@](C)(C(N)=O)CC[C@]5(C)CC[C@]34C)C2=CC(=O)[C@@H]1O` [Compound A55, (2R,4aS,6aS,9S,10R,12bR,14aS,14bR)-10-Hydroxy-9-methoxy-2,4a,6a,9,12b,14a-hexamethyl-11-oxo-1,2,3,4,4a,5,6,6a,9,10,11,12b,13,14,14a,14b-hexadecahydropicene-2-carboxamide], the inhibition at 10 µM in test [1] is 30 to 50%; in test [2] it was 50 to 80%; in test [3] it was at least 80%; in test [4] it was 50 to 80%; with HepG2 (liver cancer), at least 80%; in the test on SW620 (colon cancer), at least 80%. For the same molecule, in the test on HeLa (ovarian cancer), the inhibition at 10 µM lay in the range of 50 to 80%.

As for `CO[C@@]1(C)C2=CC=C3[C@@](C)(CC[C@@]4(C)[C@@H]5C[C@](C)(C(=O)N6CCOCC6)CC[C@]5(C)CC[C@]34C)C2=CC(=O)[C@@H]1O` [Compound A56, (3R,4S,6bS,8aS,11R,12aR,12bS,14aR)-3-hydroxy-4-methoxy-4,6b,8a,11,12b,14a-hexamethyl-11-(morpholine-4-carbonyl)-4,6b,7,8,8a,9,10,11,12,12a,12b,13,14,14a-tetradecahydropicen-2(3H)-one], the inhibition at 10 µM in test [1] is 30 to 50%; in test [2], 50 to 80%; in test [3], at least 80%; in test [4], at least 80%; with HepG2 (liver cancer) it was at least 80%; in the test on SW620 (colon cancer) it was at least 80%. Moreover, in the test with HeLa (ovarian cancer), the inhibition at 10 µM was in the range of 50 to 80%.

For `CO[C@@]1(C)C2=CC=C3[C@@](C)(CC[C@@]4(C)[C@@H]5C[C@](C)(C(=O)NO)CC[C@]5(C)CC[C@]34C)C2=CC(=O)[C@@H]1O` [Compound A57, (2R,4aS,6aS,9S,10R,12bR,14aS,14bR)—N,10-dihydroxy-9-methoxy-2,4a,6a,9,12b,14a-hexamethyl-11-oxo-1,2,3,4,4a,5,6,6a,9,10,11,12b,13,14,14a,14b-hexadecahydropicene-2-carboxamide], the inhibition at 10 µM in test [1] is 30 to 50%; in test [2], 50 to 80%; in test [3], at least 80%; in test [4] it was at least 80%; in the test on HepG2 (liver cancer), at least 80%; with SW620 (colon cancer) it was at least 80%. Besides, the inhibition at 10 µM in the test with HeLa (ovarian cancer) was in the range of 50 to 80%.

Take `CO[C@@]1(C)C2=CC=C3[C@@](C)(CC[C@@]4(C)[C@@H]5C[C@](C)(C(N)=O)CC[C@]5(C)CC[C@]34C)C2=CC(=O)/C1=C\C#N` [Compound A59, (2R,4aS,6aS,9S,10Z,12bR,14aS,14bR)-10-(cyanomethylidene)-9-methoxy-2,4a,6a,9,12b,14a-hexamethyl-11-oxo-1,2,3,4,4a,5,6,6a,9,10,11,12b,13,14,14a,14b-hexadecahydropicene-2-carboxamide]: the inhibition at 10 µM (in test [1]; in test [2]; in test [3]; in test [4]; in the test with HepG2 (liver cancer); with SW620 (colon cancer)) was at least 80% each time. The inhibition at 10 µM in the test with HeLa (ovarian cancer) was at least 80%.
